Data taken from patent US7585460B2, “Method for inhibiting the biological acidification of water in contact with materials containing sulfur” (ENI S.p.A., priority 2003, dated 2009).

Legend:
Thiobacilli (consortium) [1] = test: Effect of different salts on acidification, TM medium with sulfur powder and inoculated mixed culture (Example 7); format: cell-based, Thiobacillus
Method: The verification is aimed at discovering the effects deriving from the presence of different salts at varying concentrations on the same consortium.
A series of 12 100 ml flasks containing 50 ml of TM medium (with 0.4 g of sulfur powder), was inoculated with 1 ml of mixed culture containing 10^8 cells/ml.
• 3 control flasks containing TM and sulfur, with NaCl (0.16 M, 0.33 M, 0.56 M); • 3 flasks with TM, sulfur and Na2SO4 (0.12 M, 0.24 M, 0.56 M); • 3 flasks with TM, sulfur and KCl (0.13 M, 0.26 M, 0.56 M); • 3 flasks with TM, sulfur and KNO3 (0.09 M, 0.19 M, 0.56 M) The data collected are listed in Table 6.

Thiobacilli (consortium) [2] = test: as above; format: cell-based, Thiobacillus; conditions: salt 0.5 M, day 28
[3] = tested on: Thiobacilli (microbial consortium); test: Comparison of NaCl and SLS, TM medium with sulfur flowers and inoculated mixed culture (Example 6); format: cell-based, Thiobacillus; conditions: for O.D. / p.H.: C: 20 mg/l of SLS
Method: The experiment was aimed at comparing the action of SLS, a known bacteriostatic for Thiobacilli, and Sodium Chloride on the same microbial consortium.
A series of 6 100 ml flasks containing 50 ml of TM medium (with 0.4 g of sulfur flowers), were inoculated with 1 ml of mixed culture containing 10^8 cells/ml.
• A—2 control flasks containing TM and sulfur, without NaCl; • B—2 flasks with TM, sulfur and 33 g/l of NaCl; • C—2 flasks with TM, sulfur and 20 mg/l of SLS (concentration used in literature as bacteriostatic) The pH values and the bacterial growth were measured over a period of 34 days, by means of the increase in the absorbance.

Thiobacilli = conditions: bacteriostatic product; literature (Clark et al. 1998); cited from earlier work

Work on `[Cl-].[K+]` [KCl] yielded a PH (Thiobacilli (consortium) [1]; salt 0.13 M, day 0) of 6.0, a PH (Thiobacilli (consortium) [1]; salt 0.13 M, day 2) of 6.0 and a PH (Thiobacilli (consortium) [1]; salt 0.13 M, day 6) of 4.5. It also gave a PH (Thiobacilli (consortium) [1]; salt 0.13 M, day 9) of 4.0, a PH (Thiobacilli (consortium) [1]; salt 0.13 M, day 12) of 3.5 and a PH (Thiobacilli (consortium) [1]; salt 0.13 M, day 15) of 3.0. For the same compound, the PH (Thiobacilli (consortium) [1]; salt 0.13 M, day 18) was 3.0, the PH (Thiobacilli (consortium) [1]; salt 0.13 M, day 20) was 3.0 and the PH (Thiobacilli (consortium) [1]; salt 0.13 M, day 24) was 2.5. It also gave a PH (Thiobacilli (consortium) [1]; salt 0.13 M, day 28) of 2.5, a PH (Thiobacilli (consortium) [1]; salt 0.13 M, day 30) of 2.4 and a PH (Thiobacilli (consortium) [1]; salt 0.13 M, day 40) of 1.5. For the same compound, the PH (Thiobacilli (consortium) [1]; salt 0.26 M, day 0) was 6.0, the PH (Thiobacilli (consortium) [1]; salt 0.26 M, day 2) was 6.0 and the PH (Thiobacilli (consortium) [1]; salt 0.26 M, day 6) was 5.5. For the same compound, the PH (Thiobacilli (consortium) [1]; salt 0.26 M, day 9) was 5.5, the PH (Thiobacilli (consortium) [1]; salt 0.26 M, day 12) was 5.5 and the PH (Thiobacilli (consortium) [1]; salt 0.26 M, day 15) was 5.5. The PH (Thiobacilli (consortium) [1]; salt 0.26 M, day 18) was 5.2, the PH (Thiobacilli (consortium) [1]; salt 0.26 M, day 20) was 5.2 and the PH (Thiobacilli (consortium) [1]; salt 0.26 M, day 24) was 5.0. It also gave a PH (Thiobacilli (consortium) [1]; salt 0.26 M, day 28) of 5.0, a PH (Thiobacilli (consortium) [1]; salt 0.26 M, day 30) of 5.0 and a PH (Thiobacilli (consortium) [1]; salt 0.26 M, day 40) of 4.9. For the same compound, the PH (Thiobacilli (consortium) [1]; salt 0.56 M, day 0) was 6.0, the PH (Thiobacilli (consortium) [1]; salt 0.56 M, day 2) was 6.0 and the PH (Thiobacilli (consortium) [1]; salt 0.56 M, day 6) was 6.0. It also gave a PH (Thiobacilli (consortium) [1]; salt 0.56 M, day 9) of 6.0, a PH (Thiobacilli (consortium) [1]; salt 0.56 M, day 12) of 6.0 and a PH (Thiobacilli (consortium) [1]; salt 0.56 M, day 15) of 6.0. The PH (Thiobacilli (consortium) [1]; salt 0.56 M, day 18) was 6.0, the PH (Thiobacilli (consortium) [1]; salt 0.56 M, day 20) was 6.0 and the PH (Thiobacilli (consortium) [1]; salt 0.56 M, day 24) was 6.0. For the same compound, the PH (Thiobacilli (consortium) [1]; salt 0.56 M, day 28) was 6.0, the PH (Thiobacilli (consortium) [1]; salt 0.56 M, day 30) was 6.0 and the PH (Thiobacilli (consortium) [1]; salt 0.56 M, day 40) was 5.8.
`O=[N+]([O-])[O-].[K+]` [KNO3] showed a PH (Thiobacilli (consortium) [1]; salt 0.09 M, day 0) of 6.0, a PH (Thiobacilli (consortium) [1]; salt 0.09 M, day 2) of 6.0 and a PH (Thiobacilli (consortium) [1]; salt 0.09 M, day 6) of 3.8. It also gave a PH (Thiobacilli (consortium) [1]; salt 0.09 M, day 9) of 3.0, a PH (Thiobacilli (consortium) [1]; salt 0.09 M, day 12) of 3.0 and a PH (Thiobacilli (consortium) [1]; salt 0.09 M, day 15) of 3.0. For the same compound, the PH (Thiobacilli (consortium) [1]; salt 0.09 M, day 18) was 3.0, the PH (Thiobacilli (consortium) [1]; salt 0.09 M, day 20) was 3.0 and the PH (Thiobacilli (consortium) [1]; salt 0.09 M, day 24) was 3.0. For the same compound, the PH (Thiobacilli (consortium) [1]; salt 0.09 M, day 28) was 3.0, the PH (Thiobacilli (consortium) [1]; salt 0.09 M, day 30) was 3.0 and the PH (Thiobacilli (consortium) [1]; salt 0.09 M, day 40) was 3.0. The PH (Thiobacilli (consortium) [1]; salt 0.19 M, day 0) was 6.0, the PH (Thiobacilli (consortium) [1]; salt 0.19 M, day 2) was 6.0 and the PH (Thiobacilli (consortium) [1]; salt 0.19 M, day 6) was 4.8. For the same compound, the PH (Thiobacilli (consortium) [1]; salt 0.19 M, day 9) was 4.0, the PH (Thiobacilli (consortium) [1]; salt 0.19 M, day 12) was 4.0 and the PH (Thiobacilli (consortium) [1]; salt 0.19 M, day 15) was 4.0. The PH (Thiobacilli (consortium) [1]; salt 0.19 M, day 18) was 4.0, the PH (Thiobacilli (consortium) [1]; salt 0.19 M, day 20) was 4.0 and the PH (Thiobacilli (consortium) [1]; salt 0.19 M, day 24) was 4.0. It also gave a PH (Thiobacilli (consortium) [1]; salt 0.19 M, day 28) of 4.0, a PH (Thiobacilli (consortium) [1]; salt 0.19 M, day 30) of 3.3 and a PH (Thiobacilli (consortium) [1]; salt 0.19 M, day 40) of 3.2. It also gave a PH (Thiobacilli (consortium) [1]; salt 0.5 M, day 0) of 6.0, a PH (Thiobacilli (consortium) [1]; salt 0.5 M, day 2) of 6.0 and a PH (Thiobacilli (consortium) [1]; salt 0.5 M, day 6) of 6.0. It also gave a PH (Thiobacilli (consortium) [1]; salt 0.5 M, day 9) of 6.0, a PH (Thiobacilli (consortium) [1]; salt 0.5 M, day 12) of 6.0 and a PH (Thiobacilli (consortium) [1]; salt 0.5 M, day 15) of 6.0. For the same compound, the PH (Thiobacilli (consortium) [1]; salt 0.5 M, day 18) was 6.0, the PH (Thiobacilli (consortium) [1]; salt 0.5 M, day 20) was 6.0 and the PH (Thiobacilli (consortium) [1]; salt 0.5 M, day 24) was 6.0. For the same compound, the PH (Thiobacilli (consortium) [1]; salt 0.5 M, day 30) was 6.0, the PH (Thiobacilli (consortium) [1]; salt 0.5 M, day 40) was 5.8 and the PH (Thiobacilli (consortium) [2]) was 6.0.
`O=S(=O)([O-])[O-].[Na+].[Na+]` [Na2SO4] gave a PH (Thiobacilli (consortium) [1]; salt 0.12 M, day 0) of 6.0, a PH (Thiobacilli (consortium) [1]; salt 0.12 M, day 2) of 6.0 and a PH (Thiobacilli (consortium) [1]; salt 0.12 M, day 6) of 3.5. For the same compound, the PH (Thiobacilli (consortium) [1]; salt 0.12 M, day 9) was 2.8, the PH (Thiobacilli (consortium) [1]; salt 0.12 M, day 12) was 2.8 and the PH (Thiobacilli (consortium) [1]; salt 0.12 M, day 15) was 2.8. It also gave a PH (Thiobacilli (consortium) [1]; salt 0.12 M, day 18) of 2.5, a PH (Thiobacilli (consortium) [1]; salt 0.12 M, day 20) of 1.8 and a PH (Thiobacilli (consortium) [1]; salt 0.12 M, day 24) of 1.8. The PH (Thiobacilli (consortium) [1]; salt 0.12 M, day 28) was 1.6, the PH (Thiobacilli (consortium) [1]; salt 0.12 M, day 30) was 1.6 and the PH (Thiobacilli (consortium) [1]; salt 0.12 M, day 40) was 1.4. It also gave a PH (Thiobacilli (consortium) [1]; salt 0.24 M, day 0) of 6.0, a PH (Thiobacilli (consortium) [1]; salt 0.24 M, day 2) of 6.0 and a PH (Thiobacilli (consortium) [1]; salt 0.24 M, day 6) of 4.5. For the same compound, the PH (Thiobacilli (consortium) [1]; salt 0.24 M, day 9) was 4.0, the PH (Thiobacilli (consortium) [1]; salt 0.24 M, day 12) was 3.5 and the PH (Thiobacilli (consortium) [1]; salt 0.24 M, day 15) was 3.0. For the same compound, the PH (Thiobacilli (consortium) [1]; salt 0.24 M, day 18) was 2.8, the PH (Thiobacilli (consortium) [1]; salt 0.24 M, day 20) was 2.0 and the PH (Thiobacilli (consortium) [1]; salt 0.24 M, day 24) was 2.0. For the same compound, the PH (Thiobacilli (consortium) [1]; salt 0.24 M, day 28) was 1.7, the PH (Thiobacilli (consortium) [1]; salt 0.24 M, day 30) was 1.5 and the PH (Thiobacilli (consortium) [1]; salt 0.24 M, day 40) was 1.5. It also gave a PH (Thiobacilli (consortium) [1]; salt 0.56 M, day 0) of 6.0, a PH (Thiobacilli (consortium) [1]; salt 0.56 M, day 2) of 6.0 and a PH (Thiobacilli (consortium) [1]; salt 0.56 M, day 6) of 6.0. It also gave a PH (Thiobacilli (consortium) [1]; salt 0.56 M, day 9) of 6.0, a PH (Thiobacilli (consortium) [1]; salt 0.56 M, day 12) of 6.0 and a PH (Thiobacilli (consortium) [1]; salt 0.56 M, day 15) of 5.9. The PH (Thiobacilli (consortium) [1]; salt 0.56 M, day 18) was 5.9, the PH (Thiobacilli (consortium) [1]; salt 0.56 M, day 20) was 5.9 and the PH (Thiobacilli (consortium) [1]; salt 0.56 M, day 24) was 5.9. The PH (Thiobacilli (consortium) [1]; salt 0.56 M, day 28) was 5.9, the PH (Thiobacilli (consortium) [1]; salt 0.56 M, day 30) was 5.9 and the PH (Thiobacilli (consortium) [1]; salt 0.56 M, day 40) was 5.8.
For `CCCCCCCCCCCCOS(=O)(=O)[O-].[Na+]` [SLS, Sodium Lauryl Sulfate, reference compound], the “inhibition of the acidification of water in contact with elemental sulfur” value ([3]; 33 g/l NaCl, 20 mg/l SLS) was “capable of inhibiting the acidification”, the O.D. ([3]; day 0) was 0.014 and the p.H. ([3]; day 0) was 6.0. It also gave an O.D. ([3]; day 3) of 0.013, a p.H. ([3]; day 3) of 4.5 and an O.D. ([3]; day 5) of 0.042. The p.H. ([3]; day 5) was 4.5, the O.D. ([3]; day 8) was 0.073 and the p.H. ([3]; day 8) was 4.0. The O.D. ([3]; day 11) was 0.067, the p.H. ([3]; day 11) was 4.0 and the O.D. ([3]; day 16) was 0.098. For the same compound, the p.H. ([3]; day 16) was 3.8, the O.D. ([3]; day 21) was 0.080 and the p.H. ([3]; day 21) was 3.8. It also gave an O.D. ([3]; day 23) of 0.035, a p.H. ([3]; day 23) of 3.8 and an O.D. ([3]; day 28) of 0.033. The p.H. ([3]; day 28) was 3.2, the O.D. ([3]; day 31) was 0.020 and the p.H. ([3]; day 31) was 3.2. For the same compound, the “reduction of corrosion of metallic containers used for transporting or containing sulfur” value (Thiobacilli) was “effective for reducing the corrosion”.
